What was measured:
[1] = biological target: T1, Lysine-specific histone demethylase 2 (Homo sapiens, UniProt Q8NB78); assay: Inhibition of LSD2 (unknown origin) using Lys4-dimethylated H3 (1-20) peptide as substrate incubated for 30 mins by peroxidase-coupled assay
T1 sequence (Q8NB78 whole entry): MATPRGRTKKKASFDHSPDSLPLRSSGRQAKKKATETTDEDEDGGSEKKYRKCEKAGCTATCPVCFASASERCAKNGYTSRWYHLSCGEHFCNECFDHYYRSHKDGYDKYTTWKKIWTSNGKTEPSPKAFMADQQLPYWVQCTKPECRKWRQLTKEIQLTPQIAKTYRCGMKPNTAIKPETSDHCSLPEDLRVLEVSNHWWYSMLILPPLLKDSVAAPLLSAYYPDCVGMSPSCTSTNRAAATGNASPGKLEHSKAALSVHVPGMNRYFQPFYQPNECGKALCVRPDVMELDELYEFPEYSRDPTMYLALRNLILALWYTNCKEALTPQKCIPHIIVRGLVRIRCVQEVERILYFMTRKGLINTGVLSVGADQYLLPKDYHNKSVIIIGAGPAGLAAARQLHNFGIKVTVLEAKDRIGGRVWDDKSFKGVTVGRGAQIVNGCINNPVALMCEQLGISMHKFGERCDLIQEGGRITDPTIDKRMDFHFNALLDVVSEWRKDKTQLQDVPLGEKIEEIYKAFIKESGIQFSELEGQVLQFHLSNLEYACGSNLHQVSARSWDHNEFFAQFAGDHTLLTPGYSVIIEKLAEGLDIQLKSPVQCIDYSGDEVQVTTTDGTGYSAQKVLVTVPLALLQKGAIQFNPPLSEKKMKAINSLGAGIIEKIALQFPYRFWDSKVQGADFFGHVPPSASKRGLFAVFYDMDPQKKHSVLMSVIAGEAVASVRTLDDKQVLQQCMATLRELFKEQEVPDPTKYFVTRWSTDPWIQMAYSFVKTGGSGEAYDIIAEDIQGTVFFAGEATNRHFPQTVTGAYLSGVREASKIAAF

[2] = biological target: T2, Amine oxidase [flavin-containing] A (Homo sapiens, UniProt P21397); assay: Inhibition of human MAO-A expressed in baculovirus infected BTI insect cells using tyramine as substrate incubated for 30 mins by peroxidase-coupled assay
T2 sequence (P21397 whole entry): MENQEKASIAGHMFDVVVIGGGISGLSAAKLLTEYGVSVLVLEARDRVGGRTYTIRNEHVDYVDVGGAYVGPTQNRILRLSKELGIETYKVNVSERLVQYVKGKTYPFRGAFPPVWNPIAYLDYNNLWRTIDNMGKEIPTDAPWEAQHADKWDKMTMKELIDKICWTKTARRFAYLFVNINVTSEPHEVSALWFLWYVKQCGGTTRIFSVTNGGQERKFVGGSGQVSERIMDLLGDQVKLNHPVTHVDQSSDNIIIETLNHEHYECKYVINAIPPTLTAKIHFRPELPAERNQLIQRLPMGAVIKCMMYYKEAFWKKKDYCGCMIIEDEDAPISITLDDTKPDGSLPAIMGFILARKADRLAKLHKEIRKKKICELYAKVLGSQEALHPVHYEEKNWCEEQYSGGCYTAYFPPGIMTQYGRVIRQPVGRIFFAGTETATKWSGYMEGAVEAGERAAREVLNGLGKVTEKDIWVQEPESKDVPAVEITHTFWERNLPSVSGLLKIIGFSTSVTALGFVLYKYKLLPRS

[3] = biological target: T3, Amine oxidase [flavin-containing] B (Homo sapiens, UniProt P27338); assay: biochemical
T3 sequence (P27338 whole entry): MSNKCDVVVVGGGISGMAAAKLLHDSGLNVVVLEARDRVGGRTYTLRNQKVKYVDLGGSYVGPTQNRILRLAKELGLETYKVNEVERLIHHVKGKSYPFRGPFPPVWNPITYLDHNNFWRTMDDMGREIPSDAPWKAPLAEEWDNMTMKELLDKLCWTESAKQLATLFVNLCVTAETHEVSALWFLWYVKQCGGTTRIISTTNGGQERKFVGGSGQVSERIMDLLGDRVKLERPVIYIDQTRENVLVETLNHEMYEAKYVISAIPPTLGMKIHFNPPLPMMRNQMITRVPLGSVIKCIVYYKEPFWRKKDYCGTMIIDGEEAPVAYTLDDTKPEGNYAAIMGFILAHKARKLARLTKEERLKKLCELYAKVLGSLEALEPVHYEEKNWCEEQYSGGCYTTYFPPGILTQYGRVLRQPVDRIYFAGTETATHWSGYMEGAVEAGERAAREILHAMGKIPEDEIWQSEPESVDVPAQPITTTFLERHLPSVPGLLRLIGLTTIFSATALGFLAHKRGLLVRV

[4] = tested on: HeLa; assay: Antiproliferative activity against human HeLa cells after 48 hrs by MTT assay; assay type: functional
[5] = tested on: KYSE-150 cell line; assay: Antiproliferative activity against human KYSE150 cells after 48 hrs by MTT assay; assay type: functional
[6] = tested on: PC-3; assay: Antiproliferative activity against human PC-3 cells after 48 hrs by MTT assay; assay type: functional
[7] = tested on: HCT-116; assay: Antiproliferative activity against human HCT116 cells after 48 hrs by MTT assay; assay type: functional
[8] = tested on: SH-SY5Y; assay: Antiproliferative activity against human SH-SY5Y cells after 48 hrs by MTT assay; assay type: functional
[9] = biological target: T2, Amine oxidase [flavin-containing] A; assay: Inhibition of human MAO-A expressed in expressed in baculovirus infected BTI insect cells using tyramine as substrate by peroxidase-coupled method
[10] = biological target: T3, Amine oxidase [flavin-containing] B; assay: biochemical; remark: listed apart in the source
[11] = biological target: T2, Amine oxidase [flavin-containing] A; assay: biochemical
[12] = biological target: T2, Amine oxidase [flavin-containing] A
[13] = tested on: MV4-11; assay: Antiproliferative activity against human MV4-11 cells incubated for 6 days by MTS assay; assay type: functional, cell-based; details: MV4-11, 144 h
[14] = biological target: T3, Amine oxidase [flavin-containing] B; assay: Inhibition of MAO-B (unknown origin) using benzylamine as substrate preincubated for 20 mins followed by substrate addition and measured after 60 mins
[15] = biological target: T2, Amine oxidase [flavin-containing] A; assay: Inhibition of MAO-A (unknown origin) preincubated for 20 mins using 5-hydroxytryptamine as substrate followed by substrate addition and measured after 60 mins
[16] = Antiproliferative activity against human MET-1 cells after 72 hrs by [3H] thymidine incorporation assay; assay type: functional, cell-based
[17] = biological target: LSD1/CoREST complex (Homo sapiens, UniProt O60341); assay: Inhibition of LSD1/FLAG-tagged CoREST (unknown origin) expressed in HEK293F cells using diMeK4H3(1 to 21) as substrate preincubated for 5 mins followed by substrate addition measured for 5 mins by horseradish peroxidase-coupled assay
[18] = Inhibition of HDAC1/FLAG-tagged CoREST (unknown origin) expressed in HEK293F cells using p53 (379 to 382 residues) (RHKK(Ac) as substrate incubated for 30 mins by fluorescence method; set-up: species or system Homo sapiens
[19] = Antiproliferative activity against human SCCIC1 cells after 72 hrs by [3H] thymidine incorporation assay; assay type: functional, cell-based
[20] = biological target: Lysine-specific histone demethylase 1A (Homo sapiens, UniProt O60341); assay: Inhibition of human LSD1 expressed in Escherichia coli BL21 (DE3) cells using (ARTK(diMe)QTARKSTGGKAPRKQLA peptide as substrate incubated for 30 mins by HRP reagent based fluorescence method

In the case of `NC1CC1c1cc(F)cc(F)c1OCc1ccccc1` (stereo unspecified), the Ki [1] is reported as > 250 µM, the Ki [2] is reported as 71 µM and the Ki [3] is reported as 33 µM.

In the case of `NC1CC1c1cccc(OCC[C@H](NC(=O)c2ccccc2)C(=O)NCc2ccccc2)c1` (stereo partly specified), the GI50 [4] is reported as 6 µM, the GI50 [5] is reported as 6 µM and the GI50 [6] is reported as 6 µM. The GI50 [7] was 6 µM and the GI50 [8] was 6 µM.

In the case of `NC1CC1c1c(F)c(F)c(F)c(F)c1F` (stereo unspecified), the Ki [9] is reported as 270 µM and the Ki [10] is reported as 8.3 µM.

Compound `NC1CC1c1cccc(F)c1OCc1ccccc1` (stereo unspecified) has a Ki [9] of 64 µM and a Ki [10] of 42 µM.

`O=C(N[C@@H](CCCCNC1CC1c1ccccc1)C(=O)NCc1ccccc1)c1ccccc1` (stereo partly specified) gave a GI50 [4] of 35 µM and a GI50 [8] of 17 µM.

`O=C(N[C@@H](CCCCNC1CC1c1ccccc1)C(=O)NCc1cccc(C(F)(F)F)c1)c1ccc(-c2ccccc2)cc1` (stereo partly specified) gave a GI50 [4] of 4.1 µM and a GI50 [8] of 2.4 µM.

For `O=C(N[C@@H](CCCCNC1CC1c1ccccc1)C(=O)NCc1ccccc1)c1ccc(-c2ccccc2)cc1` (stereo partly specified), the GI50 [4] was 10 µM, the IC50 [11] was 87 µM and the GI50 [8] was > 3.3 µM.

Work on `CN1CCN(C(=O)CN[C@@H]2C[C@H]2c2ccc(OCc3ccccc3)cc2)CC1` yielded an IC50 [12] of 0.51 µM.

For `CCN(CC)S(=O)(=O)c1ccc([C@H]2C[C@@H]2NCc2ccccc2)cc1`, the IC50 [13] was 15.4 µM, the IC50 [14] was 0.702 µM and the IC50 [15] was 0.525 µM.

In the case of `Nc1ccccc1NC(=O)c1ccc(CCCC(=O)Nc2ccc(C3CC3N)cc2)cc1` (stereo unspecified), the IC50 [16] is reported as 0.006 µM, the IC50 [17] is reported as 1.8 µM and the IC50 [18] is reported as 0.23 µM. For the same compound, the IC50 [19] was 0.041 µM.

In the case of `CCN(CC)S(=O)(=O)c1ccc([C@H]2C[C@@H]2N)cc1`, the IC50 [13] is reported as > 30 µM, the IC50 [14] is reported as 0.898 µM and the IC50 [15] is reported as 0.806 µM. For the same compound, the IC50 [20] was 0.123 µM.

Reference: ChEMBL document CHEMBL4813911 (J Med Chem, 2020)
